Source: patent US12612372B2, “Oxopyridazinyl-phenyl-carbonohydrazonoyl dicyanide compound and use thereof” (KOREA INSTITUTE OF SCIENCE AND TECHNOLOGY, priority 2020, dated 2026)
Read-outs that look alike come from different tables or passages of the source.

Legend:
[1] = tested on: Tau-BiFC cells; assay: Cell viability (stained nuclei count) in tau-BiFC cells
Method: (§1) In order to select novel tau protein aggregation—inhibiting substances, tau-BiFC cell model, in which formation of tau oligomers in living cells is easily observed, was used. Tau-BiFC cells were aliquoted into a 384-well plate. […] After 48 hours, nuclei in the cells were stained using Hoechst (at a treatment concentration of 2 μg/mL), and BiFC fluorescence intensity was automatically measured using Operetta (PerkinElmer) to count stained nuclei in each well out of the entire well plate. […] Furthermore, the degree of cytotoxicity induced by the newly synthesized compound was also measured based on the 100% cell viability of the group treated only with Forskolin as a reference, and the cytotoxicity value of each compound was calculated using the equation “(number of stained nuclei in group treated with compound/number of stained nuclei in group treated with Forskolin)×100”.
(§2) After 48 hours, tau protein aggregation reaction and degrees of cytotoxicity were analyzed by observing images of the cells. IC50 and toxicity of the compounds were analyzed by nonlinear regression analysis of Prism software (Graph Pad).

[2] = biological target: T1, tau protein (Homo sapiens, UniProt P10636); assay: Tau-BiFC cell model, Forskolin-induced tau protein aggregation; assay type: cell-based; conditions: for Tau BiFC in cells Response (%, @10 μM): 10 μM compound, BiFC fluorescence relative to Forskolin-only group (100% tau protein-aggregated state)
T1 construct: fused on or other part: Split Venus fragments VN173 and VC155, each fused to one copy of tau as BiFC reporter halves
Method: as §1, §2

[3] = Liver microsome stability, rat; assay type: in vitro ADME; conditions: rat liver microsomes 0.25 mg/mL, 1 μM compound, 37° C., 30 minutes, NADPH
Method: (§3) The stability of liver microsomes due to the compounds prepared according to Examples 1 to 14 was confirmed. Specifically, four types of liver microsomes (human, dog, rat, and mouse, each 0.25 mg/mL), a 0.1 M phosphate buffer solution (pH 7.4), and each of the compounds at a concentration of 1 μM were mixed and pre-cultured at 37° C. for 5 minutes and further cultured at 37° C. for 30 minutes together with an NADPH generation system solution added thereto. Thereafter, the reaction was terminated by adding an acetonitrile solution containing an internal standard material (chlorpropamide) and centrifuged for 5 minutes (14,000 rpm, 4° C.), and then a supernatant was injected into an LC-MS/MS system for analysis of substrate drugs to thereby evaluate metabolic stability due to 8 types of compounds.
(§4) The amount of the substrate remaining after the reaction was analyzed using the Shimadzu Nexera XR system and TSQ Vantage (Thermo). In an HPLC column, Kinetex XB-C18 (2.1 mm×100 mm, particle size of 2.6 μm; Phenomenex, USA) was used, and mobile phases were (A) distilled water containing 0.1% formic acid and (B) acetonitrile containing 0.1% formic acid. Analyst software (version 1.6.3) and Xcalibur (version 1.6.1) were used for data analysis.

[4] = Liver microsome stability, dog; assay type: in vitro ADME; conditions: dog liver microsomes 0.25 mg/mL, 1 μM compound, 37° C., 30 minutes, NADPH
Method: as §3, §4

[5] = Liver microsome stability, mouse; assay type: in vitro ADME; conditions: mouse liver microsomes 0.25 mg/mL, 1 μM compound, 37° C., 30 minutes, NADPH
Method: as §3, §4

[6] = biological target: T2, CYP1A2 (Homo sapiens, UniProt P05177); assay: CYP coenzyme activity in human liver microsomes, CYP1A2; assay type: in vitro ADME; conditions: 10 μM compound, human liver microsomes 0.25 mg/mL, substrate phenacetin, 15 minutes
T2 construct: human liver microsomes (0.25 mg/mL); from tissue; host or cells: human liver microsomes
T2 sequence (P05177 1-516): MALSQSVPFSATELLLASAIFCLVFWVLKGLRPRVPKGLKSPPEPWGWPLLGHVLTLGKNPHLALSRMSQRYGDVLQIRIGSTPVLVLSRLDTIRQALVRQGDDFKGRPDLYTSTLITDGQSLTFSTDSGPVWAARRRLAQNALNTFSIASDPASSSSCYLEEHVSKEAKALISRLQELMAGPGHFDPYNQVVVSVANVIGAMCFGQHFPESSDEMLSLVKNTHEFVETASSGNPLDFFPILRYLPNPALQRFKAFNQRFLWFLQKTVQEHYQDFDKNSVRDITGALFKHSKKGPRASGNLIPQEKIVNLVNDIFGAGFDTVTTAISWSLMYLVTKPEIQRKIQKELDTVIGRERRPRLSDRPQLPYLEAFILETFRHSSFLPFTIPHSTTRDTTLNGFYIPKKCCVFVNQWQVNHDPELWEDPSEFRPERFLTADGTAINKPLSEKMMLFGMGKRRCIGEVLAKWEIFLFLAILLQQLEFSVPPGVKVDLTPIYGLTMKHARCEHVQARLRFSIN
Method: (§5) Specifically, human liver microsomes (0.25 mg/mL), a 0.1 M phosphate buffer solution (pH 7.4), a substrate drug cocktail of five types of drug metabolism enzymes (50 μM phenacetin, 10 μM diclofenac, 100 μM S-mephenytoin, 5 μM dextromethorphan, and 2.5 μM midazolam), and the compound at a concentration of 0 μM or 10 μM were mixed and pre-cultured at 37° C. for 5 minutes, and then further cultured at 37° C. for 15 minutes together with an NADPH generation system solution added thereto. Thereafter, the reaction was terminated by adding an acetonitrile solution containing an internal standard material (terfenadine) and centrifuged for 5 minutes (14,000 rpm, 4° C.), and then a supernatant was injected into an LC-MS/MS system for simultaneous analysis of metabolites of the substrate drugs to thereby evaluate the inhibitory effects on drug metabolism.
(§6) Metabolites of each CYP coenzyme indicator drug generated through the reaction were analyzed using the Shimadzu Nexera XR system and TSQ Vantage (Thermo). In an HPLC column, Kinetex C18 (2.1 mm×100 mm, 2.6 μm particle size; Phenomenex, USA) was used, and mobile phases were (A) distilled water containing 0.1% formic acid and (B) acetonitrile containing 0.1% formic acid, and a gradient program shown in Table 3 was applied thereto.
(§7) The generated metabolites were quantified using a multiple reaction monitoring (MRM) quantification mode, and Xcalibur (version 1.6.1) was used for data analysis. In order to express the inhibitory effects of the novel compounds prepared according to the examples of the present invention on CYP coenzyme activity, CYP coenzyme activities (%) with respect to the control group not treated with any compound are shown in Table 4 below.

[7] = Liver microsome stability, human; assay type: in vitro ADME; conditions: human liver microsomes 0.25 mg/mL, 1 μM compound, 37° C., 30 minutes, NADPH
Method: as §3, §4

[8] = biological target: T3, CYP2D6 (Homo sapiens, UniProt P10635); assay: CYP coenzyme activity in human liver microsomes, CYP2D6; assay type: in vitro ADME; conditions: 10 μM compound, human liver microsomes 0.25 mg/mL, substrate dextromethorphan, 15 minutes
T3 construct: human liver microsomes (0.25 mg/mL); from tissue; host or cells: human liver microsomes
Method: as §5, §6, §7

[9] = biological target: T4, CYP2C9 (Homo sapiens, UniProt P11712); assay: CYP coenzyme activity in human liver microsomes, CYP2C9; assay type: in vitro ADME; conditions: 10 μM compound, human liver microsomes 0.25 mg/mL, substrate diclofenac, 15 minutes
T4 construct: human liver microsomes (0.25 mg/mL); from tissue; host or cells: human liver microsomes
Method: as §5, §6, §7

[10] = biological target: T5, CYP3A4 (Homo sapiens, UniProt P08684); assay: CYP coenzyme activity in human liver microsomes, CYP3A4; assay type: in vitro ADME; conditions: 10 μM compound, human liver microsomes 0.25 mg/mL, substrate midazolam, 15 minutes
T5 construct: human liver microsomes (0.25 mg/mL); from tissue; host or cells: human liver microsomes
Method: as §5, §6, §7

[11] = biological target: T6, CYP2C19 (Homo sapiens, UniProt P33261); assay: CYP coenzyme activity in human liver microsomes, CYP2C19; assay type: in vitro ADME; conditions: 10 μM compound, human liver microsomes 0.25 mg/mL, substrate S-mephenytoin, 15 minutes
T6 construct: human liver microsomes (0.25 mg/mL); from tissue; host or cells: human liver microsomes
Method: as §5, §6, §7

[12] = 10 μM compound, stained nuclei relative to Forskolin-only group (100%), 48 hours
[13] = tau-BiFC cells, Forskolin 30 μM, 48 hours, read-out: Tau BiFC in cells IC50

T4 sequence (P11712 whole entry): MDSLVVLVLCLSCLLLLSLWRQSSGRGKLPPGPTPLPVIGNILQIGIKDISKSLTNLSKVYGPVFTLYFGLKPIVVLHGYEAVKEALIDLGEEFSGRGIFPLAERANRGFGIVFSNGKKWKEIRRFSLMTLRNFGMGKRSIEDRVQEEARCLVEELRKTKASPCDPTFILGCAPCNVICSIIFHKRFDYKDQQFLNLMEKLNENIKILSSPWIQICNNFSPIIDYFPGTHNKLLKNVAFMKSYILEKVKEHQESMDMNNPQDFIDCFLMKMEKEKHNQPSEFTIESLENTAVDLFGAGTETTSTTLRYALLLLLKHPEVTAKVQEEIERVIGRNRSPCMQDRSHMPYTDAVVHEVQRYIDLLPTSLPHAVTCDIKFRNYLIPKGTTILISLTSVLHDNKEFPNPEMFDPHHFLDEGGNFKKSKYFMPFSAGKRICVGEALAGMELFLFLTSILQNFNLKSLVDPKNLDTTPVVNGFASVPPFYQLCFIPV
T3 sequence (P10635 whole entry): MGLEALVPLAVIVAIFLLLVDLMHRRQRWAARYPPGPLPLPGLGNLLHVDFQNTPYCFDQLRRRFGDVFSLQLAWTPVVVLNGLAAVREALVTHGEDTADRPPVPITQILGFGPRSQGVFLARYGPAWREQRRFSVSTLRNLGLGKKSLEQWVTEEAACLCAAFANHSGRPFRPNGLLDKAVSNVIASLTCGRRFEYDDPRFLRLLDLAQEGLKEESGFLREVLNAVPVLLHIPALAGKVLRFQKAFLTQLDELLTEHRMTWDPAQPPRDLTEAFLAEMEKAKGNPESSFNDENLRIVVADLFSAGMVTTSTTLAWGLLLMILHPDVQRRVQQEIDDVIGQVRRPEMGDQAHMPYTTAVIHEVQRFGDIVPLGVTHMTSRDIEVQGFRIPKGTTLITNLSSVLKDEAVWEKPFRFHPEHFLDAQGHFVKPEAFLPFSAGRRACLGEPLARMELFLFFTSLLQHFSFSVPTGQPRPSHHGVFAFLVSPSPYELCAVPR
T6 sequence (P33261 whole entry): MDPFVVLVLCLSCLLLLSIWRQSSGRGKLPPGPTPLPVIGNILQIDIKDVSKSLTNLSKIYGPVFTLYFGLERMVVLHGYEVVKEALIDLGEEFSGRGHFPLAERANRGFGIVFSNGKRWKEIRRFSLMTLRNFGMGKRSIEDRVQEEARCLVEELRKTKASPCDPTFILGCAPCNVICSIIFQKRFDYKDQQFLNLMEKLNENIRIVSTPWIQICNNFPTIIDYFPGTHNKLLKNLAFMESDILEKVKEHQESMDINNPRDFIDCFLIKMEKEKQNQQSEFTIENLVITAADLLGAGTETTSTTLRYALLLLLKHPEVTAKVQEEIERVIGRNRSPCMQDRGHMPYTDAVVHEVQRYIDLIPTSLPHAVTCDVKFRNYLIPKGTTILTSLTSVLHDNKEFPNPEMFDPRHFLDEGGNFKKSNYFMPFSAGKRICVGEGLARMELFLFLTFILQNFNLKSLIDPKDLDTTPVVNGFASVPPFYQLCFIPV
T5 sequence (P08684 whole entry): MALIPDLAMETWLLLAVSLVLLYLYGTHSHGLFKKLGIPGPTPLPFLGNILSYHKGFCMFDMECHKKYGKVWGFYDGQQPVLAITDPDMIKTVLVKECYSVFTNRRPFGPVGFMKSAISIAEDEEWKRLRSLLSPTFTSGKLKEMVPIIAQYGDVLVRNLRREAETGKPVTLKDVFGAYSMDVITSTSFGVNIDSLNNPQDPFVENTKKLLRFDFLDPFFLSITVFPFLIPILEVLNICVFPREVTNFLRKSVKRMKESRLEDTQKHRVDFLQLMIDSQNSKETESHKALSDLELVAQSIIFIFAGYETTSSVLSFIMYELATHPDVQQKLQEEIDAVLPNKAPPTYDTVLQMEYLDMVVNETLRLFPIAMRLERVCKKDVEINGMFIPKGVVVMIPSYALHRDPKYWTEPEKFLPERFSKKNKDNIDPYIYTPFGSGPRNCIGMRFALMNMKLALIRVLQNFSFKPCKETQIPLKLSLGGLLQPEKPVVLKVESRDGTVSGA
T1 sequence (P10636 2-441 isoform P10636-8 limits assumed): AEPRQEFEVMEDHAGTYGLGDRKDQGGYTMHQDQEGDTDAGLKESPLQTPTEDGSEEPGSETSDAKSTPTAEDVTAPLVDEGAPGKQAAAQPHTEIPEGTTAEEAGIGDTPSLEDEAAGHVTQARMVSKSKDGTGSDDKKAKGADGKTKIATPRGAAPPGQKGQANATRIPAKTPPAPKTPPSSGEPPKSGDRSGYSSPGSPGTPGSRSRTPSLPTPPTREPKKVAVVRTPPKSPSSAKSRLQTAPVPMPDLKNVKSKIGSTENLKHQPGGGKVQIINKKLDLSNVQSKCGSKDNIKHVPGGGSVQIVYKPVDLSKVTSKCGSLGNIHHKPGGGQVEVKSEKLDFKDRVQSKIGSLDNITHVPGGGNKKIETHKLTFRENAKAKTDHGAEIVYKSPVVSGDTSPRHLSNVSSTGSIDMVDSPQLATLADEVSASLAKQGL

SMILES | Cell viability (%, @10 μM) [1, 12] [%] | Tau BiFC in cells Response (%, @10 μM) ([2]; 48 hours) [%] | IC50 [2, 13] [nM] | further results
N#CC(C#N)=NNc1ccc(-c2ccc(=O)[nH]n2)cc1 [Comparative Example 1, reference compound] | 130.3 | 10.1 | – | IC50 ([2]; Tau BiFC in cells IC50, tau-BiFC cells, Forskolin 30 μM, 48 hours): 16800 nM
Cc1cc(=O)[nH]nc1-c1ccc(NN=C(C#N)C#N)cc1 [Comparative Example 2, reference compound] | 128.6 | 1.8 | 3500 | –
Cc1cc(-c2ccc(NN=C(C#N)C#N)cc2)n[nH]c1=O [Comparative Example 3, reference compound] | 113.1 | 37.11 | > 10000 | –
CC1CC(=O)NN=C1c1ccc(NN=C(C#N)C#N)cc1 (stereo not shown) [Comparative Example 4, reference compound] | 120.3 | 45.7 | > 10000 | –
N#CC(C#N)=NNc1ccc(-n2ncccc2=O)cc1 [Comparative Example 5, reference compound] | 124.2 | 35.1 | > 10000 | –
Cc1ccc(=O)n(-c2ccc(NN=C(C#N)C#N)cc2)n1 [Comparative Example 6, reference compound] | 114.9 | 46.7 | > 10000 | –
Cc1cnn(-c2ccc(NN=C(C#N)C#N)cc2)c(=O)c1 [Comparative Example 7, reference compound] | 102.3 | 19.4 | 4500 | –
Cc1ccnn(-c2ccc(NN=C(C#N)C#N)cc2)c1=O [Comparative Example 8, reference compound] | – | 0 | 2500 | Cell viability (%, @10 μM) ([1]; 48 h, 10 μM): 110.1%
CC(C)N1N=C(c2ccc(NN=C(C#N)C#N)cc2)CCC1=O [Example 1, (4-(1-isopropyl-6-oxo-1,4,5,6-tetrahydropyridazin-3-yl)phenyl)carbonohydrazonoyl dicyanide] | 110.1 | – | – | Rat (%) amount remaining after the reaction [3]: >100%; Dog (%) amount remaining after the reaction [4]: >100%; Mouse (%) amount remaining after the reaction [5]: >100%; CYP1A2 activity (%) with respect to control group not treated with any compound [6]: 79%; Human (%) amount remaining after the reaction [7]: 6.4%; CYP2D6 activity (%) with respect to control group not treated with any compound [8]: 74.6%; CYP2C9 activity (%) with respect to control group not treated with any compound [9]: 70.4%; CYP3A4 activity (%) with respect to control group not treated with any compound [10]: 81.7%; CYP2C19 activity (%) with respect to control group not treated with any compound [11]: 70.8%
CC1CC(=O)N(C(C)C)N=C1c1ccc(NN=C(C#N)C#N)cc1 (stereo not shown) [Example 2, (4-(1-isopropyl-4-methyl-6-oxo-1,4,5,6-tetrahydropyridazin-3-yl)phenyl)carbonohydrazonoyl dicyanide] | 102.8 | 0 | – | Rat (%) amount remaining after the reaction [3]: 92.5%; Dog (%) amount remaining after the reaction [4]: >100%; Mouse (%) amount remaining after the reaction [5]: 89%; CYP1A2 activity (%) with respect to control group not treated with any compound [6]: 80.5%; Human (%) amount remaining after the reaction [7]: 63.6%; CYP2D6 activity (%) with respect to control group not treated with any compound [8]: 84.9%; IC50 [2]: 400 nM; CYP2C9 activity (%) with respect to control group not treated with any compound [9]: 65.7%; CYP3A4 activity (%) with respect to control group not treated with any compound [10]: 74.6%; CYP2C19 activity (%) with respect to control group not treated with any compound [11]: 64.7%
CCN1N=C(c2ccc(NN=C(C#N)C#N)cc2)C(C)CC1=O (stereo not shown) [Example 3, (4-(1-ethyl-4-methyl-6-oxo-1,4,5,6-tetrahydropyridazin-3-yl)phenyl)carbonohydrazonoyl dicyanide] | 68.2 | 0 | – | Rat (%) amount remaining after the reaction [3]: 89.6%; Dog (%) amount remaining after the reaction [4]: 91.9%; Mouse (%) amount remaining after the reaction [5]: 89.6%; CYP1A2 activity (%) with respect to control group not treated with any compound [6]: >100%; Human (%) amount remaining after the reaction [7]: 90.3%; CYP2D6 activity (%) with respect to control group not treated with any compound [8]: 93.6%; IC50 [2]: 90 nM; CYP2C9 activity (%) with respect to control group not treated with any compound [9]: 99.9%; CYP3A4 activity (%) with respect to control group not treated with any compound [10]: >100%; CYP2C19 activity (%) with respect to control group not treated with any compound [11]: >100%
COc1ccc(N2N=C(c3ccc(NN=C(C#N)C#N)cc3)C(C)CC2=O)cc1 (stereo not shown) [Example 7, (4-(1-(4-methoxyphenyl)-4-methyl-6-oxo-1,4,5,6-tetrahydropyridazin-3-yl)phenyl)carbonohydrazonoyl dicyanide] | 89.3 | 2.3 | – | IC50 [2]: 940 nM
C[C@@H]1CC(=O)NN=C1c1ccc(NN=C(C#N)C#N)cc1 [Levosimendan, reference compound] | 73.21 | 9.58 | 1440 | –
